Key:
Assay type in all cases: in vivo
[1] = test system: Pharbitis purpurea; test: Post-emergence herbicidal activity against PHBPU; details: Ipomoea purpurea, 504 h, dosage 320 g/ha, rated visually after about 3 weeks
Summary of the method: (§1)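 Visual rating of damage, on a scale where 100% means the plants died and 0% means they look like untreated controls, was made about 3 weeks after treatment. Plants grown in sandy loam pots in the greenhouse were sprayed post-emergence at the one-leaf stage.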

[2] = test system: Polygonum convolvulus; test: Post-emergence herbicidal activity against POLCO; details: Fallopia convolvulus, 504 h, dosage 320 g/ha, rated visually after about 3 weeks
Summary of the method: as §1

[3] = test system: Abutilon theophrasti; test: Pre-emergence herbicidal activity against ABUTH; details: dosage 80 g/ha, scored visually after about 3 weeks vs untreated controls
Text: (§2) 1. Pre-emergence herbicidal action against harmful plants and crop plant compatibility Seeds of monocotyledonous and dicotyledonous weed plants and crop plants are placed in plastic or wood fiber pots and covered with soil. The compounds of the invention, formulated in the form of wettable powders (WP) or as emulsion concentrates (EC), are then applied onto the surface of the covering soil as aqueous suspension or emulsion with addition of 0.5% additive at a water application rate of 600 l/ha (converted). After the treatment, the pots are placed in a greenhouse and kept under good growth conditions for the trial plants. After about 3 weeks, the effect of the preparations is scored visually in comparison with untreated controls as percentages. For example, 100% activity=the plants have died, 0% activity=like control plants. [table]

[4] = test system: Echinochloa crus-galli; test: Pre-emergence herbicidal activity against ECHCG; details: Echinochloa crus-galli, 504 h, dosage 80 g/ha, scored visually after about 3 weeks vs untreated controls
Summary of the method: (§3)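 Pre-emergence pot test: seed → soil cover → spray of WP/EC formulation (aq., 0.5% additive, 600 l/ha) on soil surface → greenhouse ~3 wk → visual % activity vs untreated (100% = dead, 0% = as control).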

[5] = test system: Lolium rigidum; test: Pre-emergence herbicidal activity against LOLRI; details: Lolium rigidum, 504 h, dosage 80 g/ha, scored visually after about 3 weeks vs untreated controls
Summary of the method: as §3

[6] = test system: Setaria viridis; test: Post-emergence herbicidal activity against SETVI; details: Setaria viridis, 504 h, dosage 320 g/ha, rated visually after about 3 weeks
Summary of the method: as §1

[7] = test system: Lolium rigidum; test: Post-emergence herbicidal activity against LOLRI; details: Lolium rigidum, 504 h, dosage 320 g/ha, rated visually after about 3 weeks
Summary of the method: as §1

[8] = test system: Avena fatua; test: Post-emergence herbicidal activity against AVEFA; details: Avena fatua, 504 h, dosage 320 g/ha, rated visually after about 3 weeks
Summary of the method: as §1

[9] = test system: Avena fatua; test: Pre-emergence herbicidal activity against AVEFA; details: Avena fatua, 504 h, dosage 80 g/ha, scored visually after about 3 weeks vs untreated controls, read-out: Pre-emergence herbicidal activity in % against AVEVA (AVEFA)
Summary of the method: as §3

[10] = test system: Stellaria media; test: Pre-emergence herbicidal activity against STEME; details: Stellaria media, 504 h, dosage 80 g/ha, scored visually after about 3 weeks vs untreated controls
Summary of the method: as §3

[11] = test system: Polygonum convolvulus; test: Pre-emergence herbicidal activity against POLCO; details: Fallopia convolvulus, 504 h, dosage 80 g/ha, scored visually after about 3 weeks vs untreated controls
Summary of the method: as §3

[12] = test system: Alopecurus myosuroides; test: Pre-emergence herbicidal activity against ALOMY; details: Alopecurus myosuroides, 504 h, dosage 80 g/ha, scored visually after about 3 weeks vs untreated controls
Summary of the method: as §3

[13] = test system: Pharbitis purpurea; test: Pre-emergence herbicidal activity against PHBPU; details: dosage 80 g/ha, scored visually after about 3 weeks vs untreated controls
Text: as §2

[14] = test system: Alopecurus myosuroides; test: Post-emergence herbicidal activity against ALOMY; details: Alopecurus myosuroides, 504 h, dosage 320 g/ha, rated visually after about 3 weeks
Summary of the method: as §1

[15] = Pre-emergence herbicidal action against harmful plants (summary of the tables); details: 504 h, application rate of 0.08 kg of active substance or less per hectare, read-out: herbicidal action, pre-emergence treatment (very good activity)
Text: as §2, with “plants.” for “plants. [table]”
As shown by the results, compounds according to the invention such as, for example, the compounds No. I-02 and other compounds from the tables (I-05, I-10, I-11, I-12, I-13, I-14, I-15, I-16, I-17, I-18, I-19, I-20, I-21, I-22, I-23, I-24, I-25, I-26, I-27, I-28, I-29) have, when used for pre-emergence treatment, very good activity (80% to 100% herbicidal action) against harmful plants such as Abutilon theophrasti, Alopecurus myosuroides, Amaranthus retroflexus, Avena fatua, Cyperus esculentus, Echinochloa crus-galli, Hordeum murinum, Lolium rigidum, Pharbitis purpurea, Polygonum convolvulus, Setaria viridis, Stellaria media, Veronica persica and Viola tricolor at an application rate of 0.08 kg of active substance or less per hectare.

[16] = test system: Stellaria media; test: Post-emergence herbicidal activity against STEME; details: Stellaria media, 504 h, dosage 320 g/ha, rated visually after about 3 weeks
Summary of the method: as §1

[17] = test system: Veronica persica; test: Post-emergence herbicidal activity against VERPE; details: Veronica persica, 504 h, dosage 320 g/ha, rated visually after about 3 weeks
Summary of the method: as §1

[18] = test system: Viola tricolor; test: Post-emergence herbicidal activity against VIOTR; details: Viola tricolor, 504 h, dosage 320 g/ha, rated visually after about 3 weeks
Summary of the method: as §1

[19] = test system: Viola tricolor; test: Pre-emergence herbicidal activity against VIOTR; details: Viola tricolor, 504 h, dosage 80 g/ha, scored visually after about 3 weeks vs untreated controls
Summary of the method: as §3

[20] = test system: Hordeum murinum; test: Pre-emergence herbicidal activity against HORMU; details: Hordeum murinum, 504 h, dosage 80 g/ha
Summary of the method: as §3

[21] = test system: Veronica persica; test: Pre-emergence herbicidal activity against VERPE; details: Veronica persica, 504 h, dosage 80 g/ha
Summary of the method: as §3

[22] = test system: Setaria viridis; test: Pre-emergence herbicidal activity against SETVI; details: Setaria viridis, 504 h, dosage 80 g/ha, scored visually after about 3 weeks vs untreated controls
Summary of the method: as §3

[23] = test system: Echinochloa crus-galli; test: Post-emergence herbicidal activity against ECHCG; details: Echinochloa crus-galli, 504 h, dosage 320 g/ha, rated visually after about 3 weeks
Summary of the method: as §1

[24] = test system: Amaranthus retroflexus; test: Pre-emergence herbicidal activity against AMARE; details: Amaranthus retroflexus, 504 h, dosage 80 g/ha, scored visually after about 3 weeks vs untreated controls
Summary of the method: as §3

[25] = test system: Abutilon theophrasti; test: Post-emergence herbicidal activity against ABUTH; details: Abutilon theophrasti, 504 h, dosage 320 g/ha, rated visually after about 3 weeks
Summary of the method: as §1

[26] = test system: Amaranthus retroflexus; test: Post-emergence herbicidal activity against AMARE; details: Amaranthus retroflexus, 504 h, dosage 320 g/ha, rated visually after about 3 weeks
Summary of the method: as §1

[27] = test system: Hordeum murinum; test: Post-emergence herbicidal activity against HORMU; details: Hordeum murinum, 504 h, dosage 320 g/ha, rated visually after about 3 weeks
Summary of the method: as §1

SMILES	pest or weed control at 320 g/ha [1]	pest or weed control at 320 g/ha [2]	pest or weed control at 80 g/ha [4]	pest or weed control at 80 g/ha [5]	pest or weed control at 320 g/ha [6]	pest or weed control at 320 g/ha [7]	pest or weed control at 320 g/ha [8]	pest or weed control at 80 g/ha [9]	pest or weed control at 80 g/ha [10]	pest or weed control at 80 g/ha [11]	pest or weed control at 80 g/ha [12]	Pre-emergence herbicidal activity in % against PHBPU [13]	pest or weed control at 320 g/ha [14]	pest or weed control at 80 g/ha [15]	pest or weed control at 320 g/ha [16]	pest or weed control at 320 g/ha [17]	pest or weed control at 320 g/ha [18]	pest or weed control at 80 g/ha [19]	pest or weed control at 80 g/ha [20]	pest or weed control at 80 g/ha [21]	other results
CNC(=O)C1COCC1NC(=O)C1(C)CC(c2cc(F)cc(F)c2)=NO1 (stereo not drawn) [Example I-07, 3-(3,5-difluorophenyl)-5-methyl-N-[4-(methylcarbamoyl)tetrahydrofuran-3-yl]-4H-isoxazole-5-carboxamide]	80%	80%	100%																		Pre-emergence herbicidal activity in % against ABUTH [3]: 100%
C=C[C@]1(C(=O)N[C@@H]2CO[C@H](C(=O)NOC)C2)CC(c2cc(F)cc(F)c2)=NO1 (mixture of isomers) [Example I-11, (5S)-3-(3,5-difluorophenyl)-N-[cis-5-(methoxycarbamoyl)tetrahydrofuran-3-yl]-5-vinyl-4H-isoxazole-5-carboxamide]	80%	80%	100%	100%	90%	90%	90%	100%	100%	100%	100%	90%	90%	80 to 100%	90%	80%	80%	100%	90%	90%	Pre-emergence herbicidal activity in % against ABUTH [3]: 100%; pest or weed control at 80 g/ha [22]: 100%; pest or weed control at 320 g/ha [23]: 90%; pest or weed control at 80 g/ha [24]: 100%; pest or weed control at 320 g/ha [25]: 80%
C=C[C@]1(C(=O)N[C@@H]2CO[C@H](C(=O)NC3CC3)C2)CC(c2cc(F)cc(F)c2)=NO1 (mixture of isomers) [Example I-18, (5S)—N-[cis-5-(cyclopropylcarbamoyl)tetrahydrofuran-3-yl]-3-(3,5-difluorophenyl)-5-vinyl-4H-isoxazole-5-carboxamide]	90%	90%	90%	100%	90%	90%	90%	90%	100%	100%	100%	90%	90%	80 to 100%	90%	80%	80%	100%	100%	90%	pest or weed control at 320 g/ha [26]: 90%; pest or weed control at 320 g/ha [27]: 90%; pest or weed control at 80 g/ha [22]: 100%; pest or weed control at 320 g/ha [23]: 90%; pest or weed control at 80 g/ha [24]: 100%; pest or weed control at 320 g/ha [25]: 90%
C=C[C@]1(C(=O)N[C@@H]2CO[C@H](C(=O)NOC(C)C)C2)CC(c2cc(F)cc(F)c2)=NO1 (mixture of isomers) [Example I-13, (5S)-3-(3,5-difluorophenyl)-N-[cis-5-(isopropoxycarbamoyl)tetrahydrofuran-3-yl]-5-vinyl-4H-isoxazole-5-carboxamide]	80%	80%	100%	100%	90%	90%	90%	100%	100%	100%	100%	90%	90%	80 to 100%	90%	80%	80%	100%	100%	90%	pest or weed control at 320 g/ha [26]: 80%; pest or weed control at 320 g/ha [27]: 90%; pest or weed control at 80 g/ha [22]: 100%; pest or weed control at 320 g/ha [23]: 90%; pest or weed control at 80 g/ha [24]: 100%; pest or weed control at 320 g/ha [25]: 80%

Reference: patent US11613522B2, “Herbicidally active 3-phenylisoxazoline-5-carboxamides of tetrahydro- and dihydrofurancarboxamides” (BAYER AKTIENGESELLSCHAFT, priority 2017, dated 2023)
